Source: patent US6355799B1, “Substituted benzene compounds, process for their preparation, and herbicidal and defoliant compositions containing them” (ISK Americas Incorporated, priority 1997, dated 2002)

Legend:
Assay type in all cases: in vivo
[1] = system: redroot pigweed (Amaranthus retroflexus, AMARE); assay: Pre-emerge test, greenhouse herbicide activity screening; conditions: pre-emerge, 14 days after application, rating scale 0-100
How it was run: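 Compounds in acetone were track-sprayed at 15-1000 g ai/ha (187 l/ha) on sandy loam pots: pre-emerge one day after seeding, post-emerge at 2-3 leaf stage with 0.25% v/v non-ionic surfactant. Phytotoxicity was rated 14 days later on a 0 (no damage) to 100 (complete death) scale.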

[2] = system: field corn (Zea mays L., var. Dekalb 535, CORN); assay: Pre-emerge test, crop safety; conditions: pre-emerge, 14 days after application, rating scale 0-100
How it was run: (§1)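 Visual ratings on a 0-100 scale (0 no damage, 100 all plants dead) were taken at 14 days after treatment. Rates of 15-1000 g ai/ha in acetone, 187 l/ha, were sprayed onto soil one day after planting (pre-emerge) or onto 2-3 leaf plants with 0.25% v/v surfactant (post-emerge).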

[3] = system: upland rice (Oryza sp., var. Tebonnet, RICE); assay: Pre-emerge test, crop safety; conditions: pre-emerge, 14 days after application, rating scale 0-100
How it was run: as §1

[4] = system: velvetleaf (Abutilon theophrasti, ABUTH); assay: Pre-emerge test, greenhouse herbicide activity screening; conditions: pre-emerge, 14 days after application, rating scale 0-100
How it was run: (§2)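 Compounds in acetone were track-sprayed at 187 l/ha, 15–1000 g ai/ha, onto sandy loam pots. Pre-emerge seeds were sown one day before spraying, with surface watering afterwards. Post-emerge plants were at the 2–3 leaf stage and sprayed with 0.25% v/v non-ionic surfactant. Injury was rated 0–100 at 14 days.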

[5] = system: large crabgrass (Digitaria sanguinalis, DIGSA); assay: as above; conditions: pre-emerge, 14 days after application, rating scale 0-100
How it was run: as §2

[6] = system: lambsquarters (Chenopodium album, CHEAL); assay: as above; conditions: pre-emerge, 14 days after application, rating scale 0-100
How it was run: as §2

[7] = system: green foxtail (Setaria viridis, SETVI); assay: as above; conditions: pre-emerge, 14 days after application, rating scale 0-100
How it was run: as §2

[8] = system: ivyleaf morningglory (Ipomoea hederacea, IPOHE); assay: as above; conditions: pre-emerge, 14 days after application, rating scale 0-100
How it was run: as §2

[9] = system: barnyardgrass (Echinochloa crus-galli, ECHCG); assay: as above; conditions: pre-emerge, 14 days after application, rating scale 0-100
How it was run: as §2

[10] = system: johnsongrass (Sorghum halepense, SORHA); assay: as above; conditions: pre-emerge, 14 days after application, rating scale 0-100
How it was run: as §2

[11] = system: sicklepod (Cassia obtusifolia, CASOB); assay: as above; conditions: pre-emerge, 14 days after application, rating scale 0-100
How it was run: as §2

[12] = system: velvetleaf (Abutilon theophrasti, ABUTH); assay: Post-emerge test, greenhouse herbicide activity screening; conditions: post-emerge, 14 days after application, rating scale 0-100
How it was run: as §2

[13] = system: large crabgrass (Digitaria sanguinalis, DIGSA); assay: as above; conditions: post-emerge, 14 days after application, rating scale 0-100
How it was run: as §2

[14] = system: lambsquarters (Chenopodium album, CHEAL); assay: as above; conditions: post-emerge, 14 days after application, rating scale 0-100
How it was run: as §2

[15] = system: green foxtail (Setaria viridis, SETVI); assay: as above; conditions: post-emerge, 14 days after application, rating scale 0-100
How it was run: as §2

[16] = system: ivyleaf morningglory (Ipomoea hederacea, IPOHE); assay: as above; conditions: post-emerge, 14 days after application, rating scale 0-100
How it was run: as §2

[17] = system: barnyardgrass (Echinochloa crus-galli, ECHCG); assay: as above; conditions: post-emerge, 14 days after application, rating scale 0-100
How it was run: as §2

[18] = system: johnsongrass (Sorghum halepense, SORHA); assay: as above; conditions: post-emerge, 14 days after application, rating scale 0-100
How it was run: as §2

[19] = system: sicklepod (Cassia obtusifolia, CASOB); assay: as above; conditions: post-emerge, 14 days after application, rating scale 0-100
How it was run: as §2

[20] = system: redroot pigweed (Amaranthus retroflexus, AMARE); assay: as above; conditions: post-emerge, 14 days after application
How it was run: as §2

[21] = system: field corn (Zea mays L., var. Dekalb 535, CORN); assay: Post-emerge test, crop safety; conditions: post-emerge, 14 days after application, rating scale 0-100
How it was run: as §2

[22] = system: upland rice (Oryza sp., var. Tebonnet, RICE); assay: Post-emerge test, crop safety; conditions: post-emerge, 14 days after application, rating scale 0-100
How it was run: as §2

[23] = 63 g ai/ha, rating scale 0-100 (0 no damage, 100 complete death)
[24] = 250 g ai/ha, rating scale 0-100

SMILES: Cn1c(C(F)(F)F)cc(=O)n(-c2ccc(Cl)cc2/C=C/c2ccc3ccccc3c2)c1=O [14-59]
- phytotoxicity rating AMARE ([1]; 63 g ai/ha): 0
- phytotoxicity rating AMARE ([1]; 250 g ai/ha): 0
- phytotoxicity rating CORN ([2]; 63 g ai/ha): 0
- phytotoxicity rating CORN ([2]; 250 g ai/ha): 0
- phytotoxicity rating RICE ([3]; 63 g ai/ha): 0
- phytotoxicity rating RICE ([3]; 250 g ai/ha): 0
- phytotoxicity rating ABUTH ([4]; 63 g ai/ha): 0
- phytotoxicity rating ABUTH ([4]; 250 g ai/ha): 0
- phytotoxicity rating DIGSA ([5]; 63 g ai/ha): 0
- phytotoxicity rating DIGSA ([5]; 250 g ai/ha): 0
- phytotoxicity rating CHEAL ([6]; 63 g ai/ha): 40
- phytotoxicity rating CHEAL ([6]; 250 g ai/ha): 0
- phytotoxicity rating SETVI ([7]; 63 g ai/ha): 0
- phytotoxicity rating SETVI ([7]; 250 g ai/ha): 0
- phytotoxicity rating IPOHE ([8]; 63 g ai/ha): 0
- phytotoxicity rating IPOHE ([8]; 250 g ai/ha): 0
- phytotoxicity rating ECHCG ([9]; 63 g ai/ha): 0
- phytotoxicity rating ECHCG ([9]; 250 g ai/ha): 0
- phytotoxicity rating SORHA ([10]; 63 g ai/ha): 0
- phytotoxicity rating SORHA ([10]; 250 g ai/ha): 0
- phytotoxicity rating CASOB ([11]; 63 g ai/ha): 0
- phytotoxicity rating CASOB ([11]; 250 g ai/ha): 0
- Post-emerge Herbicidal Activity ABUTH (phytotoxicity rating) ([12]; 63 g ai/ha): 50
- Post-emerge Herbicidal Activity ABUTH (phytotoxicity rating) ([12]; 250 g ai/ha): 30
- Post-emerge Herbicidal Activity DIGSA (phytotoxicity rating) ([13]; 63 g ai/ha): 0
- Post-emerge Herbicidal Activity DIGSA (phytotoxicity rating) ([13]; 250 g ai/ha): 0
- Post-emerge Herbicidal Activity CHEAL (phytotoxicity rating) ([14]; 63 g ai/ha): 10
- Post-emerge Herbicidal Activity CHEAL (phytotoxicity rating) ([14]; 250 g ai/ha): 10
- Post-emerge Herbicidal Activity SETVI (phytotoxicity rating) ([15]; 63 g ai/ha): 0
- Post-emerge Herbicidal Activity SETVI (phytotoxicity rating) ([15]; 250 g ai/ha): 0
- Post-emerge Herbicidal Activity IPOHE (phytotoxicity rating) ([16]; 63 g ai/ha): 30
- Post-emerge Herbicidal Activity IPOHE (phytotoxicity rating) ([16]; 250 g ai/ha): 30
- Post-emerge Herbicidal Activity ECHCG (phytotoxicity rating) ([17]; 63 g ai/ha): 0
- Post-emerge Herbicidal Activity ECHCG (phytotoxicity rating) ([17]; 250 g ai/ha): 0
- Post-emerge Herbicidal Activity SORHA (phytotoxicity rating) ([18]; 63 g ai/ha): 0
- Post-emerge Herbicidal Activity SORHA (phytotoxicity rating) ([18]; 250 g ai/ha): 0
- Post-emerge Herbicidal Activity CASOB (phytotoxicity rating) ([19]; 63 g ai/ha): 0
- Post-emerge Herbicidal Activity CASOB (phytotoxicity rating) ([19]; 250 g ai/ha): 10
- Post-emerge Herbicidal Activity AMARE (phytotoxicity rating) [20, 23]: 20
- Post-emerge Herbicidal Activity AMARE (phytotoxicity rating) [20, 24]: 20
- Post-emerge Herbicidal Activity CORN (crop damage rating) ([21]; 63 g ai/ha): 0
- Post-emerge Herbicidal Activity CORN (crop damage rating) ([21]; 250 g ai/ha): 0
- Post-emerge Herbicidal Activity RICE (crop damage rating) ([22]; 63 g ai/ha): 0
- Post-emerge Herbicidal Activity RICE (crop damage rating) ([22]; 250 g ai/ha): 0

SMILES: CCOC(=O)C(Cl)Cc1cc(Cl)cc(F)c1-n1c(=O)cc(C(F)(F)F)n(C)c1=O (stereo not shown) [14-60]
- phytotoxicity rating AMARE ([1]; 63 g ai/ha): 100
- phytotoxicity rating AMARE ([1]; 250 g ai/ha): 100
- phytotoxicity rating CORN ([2]; 63 g ai/ha): 0
- phytotoxicity rating CORN ([2]; 250 g ai/ha): 0
- phytotoxicity rating RICE ([3]; 63 g ai/ha): 0
- phytotoxicity rating RICE ([3]; 250 g ai/ha): 20
- phytotoxicity rating ABUTH ([4]; 63 g ai/ha): 100
- phytotoxicity rating ABUTH ([4]; 250 g ai/ha): 100
- phytotoxicity rating DIGSA ([5]; 63 g ai/ha): 0
- phytotoxicity rating DIGSA ([5]; 250 g ai/ha): 30
- phytotoxicity rating CHEAL ([6]; 63 g ai/ha): 100
- phytotoxicity rating CHEAL ([6]; 250 g ai/ha): 100
- phytotoxicity rating SETVI ([7]; 63 g ai/ha): 10
- phytotoxicity rating SETVI ([7]; 250 g ai/ha): 60
- phytotoxicity rating IPOHE ([8]; 63 g ai/ha): 90
- phytotoxicity rating IPOHE ([8]; 250 g ai/ha): 100
- phytotoxicity rating ECHCG ([9]; 63 g ai/ha): 0
- phytotoxicity rating ECHCG ([9]; 250 g ai/ha): 20
- phytotoxicity rating SORHA ([10]; 63 g ai/ha): 0
- phytotoxicity rating SORHA ([10]; 250 g ai/ha): 10
- phytotoxicity rating CASOB ([11]; 63 g ai/ha): 0
- phytotoxicity rating CASOB ([11]; 250 g ai/ha): 0
- Post-emerge Herbicidal Activity ABUTH (phytotoxicity rating) ([12]; 63 g ai/ha): 100
- Post-emerge Herbicidal Activity ABUTH (phytotoxicity rating) ([12]; 250 g ai/ha): 100
- Post-emerge Herbicidal Activity DIGSA (phytotoxicity rating) ([13]; 63 g ai/ha): 10
- Post-emerge Herbicidal Activity DIGSA (phytotoxicity rating) ([13]; 250 g ai/ha): 60
- Post-emerge Herbicidal Activity CHEAL (phytotoxicity rating) ([14]; 63 g ai/ha): 99
- Post-emerge Herbicidal Activity CHEAL (phytotoxicity rating) ([14]; 250 g ai/ha): 100
- Post-emerge Herbicidal Activity SETVI (phytotoxicity rating) ([15]; 63 g ai/ha): 20
- Post-emerge Herbicidal Activity SETVI (phytotoxicity rating) ([15]; 250 g ai/ha): 30
- Post-emerge Herbicidal Activity IPOHE (phytotoxicity rating) ([16]; 63 g ai/ha): 100
- Post-emerge Herbicidal Activity IPOHE (phytotoxicity rating) ([16]; 250 g ai/ha): 100
- Post-emerge Herbicidal Activity ECHCG (phytotoxicity rating) ([17]; 63 g ai/ha): 50
- Post-emerge Herbicidal Activity ECHCG (phytotoxicity rating) ([17]; 250 g ai/ha): 75
- Post-emerge Herbicidal Activity SORHA (phytotoxicity rating) ([18]; 63 g ai/ha): 20
- Post-emerge Herbicidal Activity SORHA (phytotoxicity rating) ([18]; 250 g ai/ha): 50
- Post-emerge Herbicidal Activity CASOB (phytotoxicity rating) ([19]; 63 g ai/ha): 40
- Post-emerge Herbicidal Activity CASOB (phytotoxicity rating) ([19]; 250 g ai/ha): 70
- Post-emerge Herbicidal Activity AMARE (phytotoxicity rating) [20, 23]: 70
- Post-emerge Herbicidal Activity AMARE (phytotoxicity rating) [20, 24]: 100
- Post-emerge Herbicidal Activity CORN (crop damage rating) ([21]; 63 g ai/ha): 0
- Post-emerge Herbicidal Activity CORN (crop damage rating) ([21]; 250 g ai/ha): 60
- Post-emerge Herbicidal Activity RICE (crop damage rating) ([22]; 63 g ai/ha): 10
- Post-emerge Herbicidal Activity RICE (crop damage rating) ([22]; 250 g ai/ha): 20
